{
  "source": "patent US20220087969A1",
  "about": "“METHOD FOR TREATING ASTHMA” (Olatec Therapeutics LLC, priority 2019, published 2022)",
  "format_in_all_cases": "in vivo, C57BL/6j mice",
  "key": {"[1]": {"tested_on": "OVA-induced allergic airway inflammation", "test": "Airway resistance in methacholine provocation test, OVA model, i.p. dapansutrile", "settings": "60 mg/kg i.p., Day 29, 100 mg/mL methacholine", "protocol": "(§1) C57BL/6j mice were sensitized to OVA (ovalbumin) by three intraperitoneal (i.p.) injections of 10 μg OVA adsorbed to 150 mg aluminum hydroxide on days 1, 14, and 21. This sensitization results in an adoptive immune response against OVA with OVA-specific TH2 cells and the production of OVA-specific antibodies of the subclasses IgE and […]. To induce acute allergic airway inflammation, mice were exposed three times to an OVA aerosol (1% w/v in PBS) on days 26, 27, and 28. Healthy control animals (healthy group) were sham sensitized to PBS and subsequently challenged with PBS aerosol. […] The following readouts were measured according to Lunding, 2015b. • General infiltration of inflammatory cells into the broncheoalveolar lumen • Determination of the specific infiltration of eosinophils, neutrophils and lymphocytes by histologic differentiation of the bronchoalveolar lavage (BAL) cells. • Goblet cell hyperplasia by CAST system (Computer Assisted Stereological Toolbox), including making microscopic pictures of the airways. • Airway resistance in response to methacholine to determine the airway hyperresponsiveness. Specifically, inflammatory cell subpopulations (eosinophils, macrophages, neutrophils, lymphocytes) infiltrating the bronchoalveolar lumen were quantified using cyto-spinned and quick-diff-stained cells from bronchoalveolar lavage fluids (BALF). […]"}, "[2]": {"tested_on": "OVA-induced allergic airway inflammation", "test": "Goblet cells covering airway mucosa (PAS sections, stereology), OVA model, i.p. dapansutrile", "settings": "treated mice, 60 mg/kg i.p.; asthmatic 22.74%; p<0.01", "protocol": "as §1"}, "[3]": {"tested_on": "OVA-induced allergic airway inflammation", "test": "Inflammatory cell infiltrate in lung tissue (HE sections, CAST), OVA model, i.p. dapansutrile", "settings": "60 mg/kg i.p.; treated vs asthmatic mice; p<0.01", "protocol": "as §1"}},
  "data": [
    {"smiles": "CS(=O)(=O)CCC#N", "note": "[dapansutrile, 3-methanesulfonylpropionitrile]", "values": [
      {"measurement": "reduction of airway resistance", "setting": "[1]; vs asthmatic mice, p<0.0001", "result": "about 60%"},
      {"measurement": "airway resistance in response to methacholine", "setting": "[1]; treated mice, asthmatic 5.61, healthy 2.83", "result": 3.93, "unit": "cm H2O·sec·ml^−1"},
      {"measurement": "area of epithelial basal membrane covered by goblet cells", "setting": "[2]", "result": 17.67, "unit": "%"},
      {"measurement": "number of inflammatory cells in lung tissue (volume of inflammatory cell infiltrate per basal membrane area)", "setting": "[3]", "result": "significantly lower"}
    ]}
  ]
}
